Drawing on patent US20230011571A1, “SMALL MOLECULE FURIN INHIBITORS FOR TREATING INFECTIOUS DISEASES” (BP Asset V, Inc., priority 2019, published 2023), this text covers inhibition for 16 compounds.

What all share (format): cell-based
Experiment [1] relates to Chikungunya virus (CHIKV). Description: microbe, parasite or virus in culture. The conditions noted are these: Chikungunya virus, Vero, 48 h, read-out: Percent viral inhibition CHKV.
Experiment [2] relates to dengue virus (DENV). As to the kind of experiment: microbe, parasite or virus in culture. The conditions noted are these: Dengue virus, Vero, 120 h, read-out: Percent viral inhibition DENY.
The test system of experiment [3] is Marburg virus (MARV). As to the kind of experiment: organism not typed. The conditions noted are these: Vero, 72 h, read-out: Percent viral inhibition MARV.

On to `CC(=O)NCC1CCN(Cc2cc(Oc3ccc(N)cc3)cc(-c3cc(Cl)cc(Cl)c3)c2)CC1` [Example 42, N-((1-((5-(4-aminophenoxy)-3′,5′-dichloro-[1,1′-biphenyl]-3-yl)methyl)piperidin-4-yl)methyl)acetamide], for which the figures for the inhibition at 1 µM in experiment [1], in experiment [2] and in experiment [3] were 7.42%, 24% and 0%, respectively.

As to `CC(=O)NCC1CCN(Cc2cc(Oc3ccc(N4CCN(C)CC4)nn3)nc(-c3cc(Cl)cc(Cl)c3)c2)CC1` [Example 157, N-((1-((2-(3,5-dichlorophenyl)-6-((6-(4-methylpiperazin-1-yl)pyridazin-3-yl)oxy)pyridin-4-yl)methyl)piperidin-4-yl)methyl)acetamide], the inhibition at 1 µM in experiment [1] is 25.3%; in experiment [2], 53.4%; in experiment [3], 77.5%.

Regarding `CC(=O)NCC1CCN(Cc2cc(Oc3cnc(N4CCN(CCS(C)(=O)=O)CC4)nc3)nc(-c3cc(Cl)cc(Cl)c3)c2)CC1` [Example 285, N-((1-((2-(3,5-dichlorophenyl)-6-((2-(4-(2-(methylsulfonyl)ethyl)piperazin-1-yl)pyrimidin-5-yl)oxy)pyridin-4-yl)methyl)piperidin-4-yl)methyl)acetamide], the results for the inhibition at 1 µM in experiment [1], in experiment [2] and in experiment [3] were 35.3%, 22.9% and 80.4%, respectively.

With `O=C(O)CC1CCN(Cc2cc(Oc3ccc(N4CCN5CCC4C5)nn3)nc(-c3cc(Cl)cc(Cl)c3)c2)CC1` (stereo not drawn) [Example 344, 2-(1-((2-((6-(1,4-diazabicyclo[3.2.1]octan-4-yl)pyridazin-3-yl)oxy)-6-(3,5-dichlorophenyl)pyridin-4-yl)methyl)piperidin-4-yl)acetic acid], the inhibition at 1 µM in experiment [1] amounted to 26.6%; in experiment [2], 77.9%; in experiment [3], 43.5%.

As for `CN1CCN(c2cnc(Oc3cc(CN4CCC(CCO)CC4)cc(-c4cc(Cl)cc(Cl)c4)n3)cn2)CC1` [Example 350, 2-(1-((2-(3,5-dichlorophenyl)-6-((5-(4-methylpiperazin-1-yl)pyrazin-2-yl)oxy)pyridin-4-yl)methyl)piperidin-4-yl)ethanol], the figures for the inhibition at 1 µM in experiment [1], in experiment [2] and in experiment [3] were 0%, 22.8% and 29.9%, respectively.

As to `CNC(=O)NCC1CCN(Cc2cc(Oc3cnc(N4CCN(CCC(=O)O)CC4)nc3)nc(-c3cc(Cl)cc(Cl)c3)c2)CC1` [Example 256, 3-(4-(5-((6-(3,5-dichlorophenyl)-4-((4-((3-methylureido)methyl)piperidin-1-yl)methyl)pyridin-2-yl)oxy)pyrimidin-2-yl)piperazin-1-yl)propanoic acid], the figures for the inhibition at 1 µM in experiment [1], in experiment [2] and in experiment [3] were 30.4%, 47.2% and 49.3%, respectively.

For the compound `CNC(=O)OCC1CCN(Cc2cc(Oc3cnc(N4CCN(C[C@@H](C)O)CC4)nc3)nc(-c3cc(Cl)cc(Cl)c3)c2)CC1` [Example 308, (R)-(1-((2-(3,5-dichlorophenyl)-6-((2-(4-(2-hydroxypropyl)piperazin-1-yl)pyrimidin-5-yl)oxy)pyridin-4-yl)methyl)piperidin-4-yl)methylmethylcarbamate], the inhibition at 1 µM in experiment [1] worked out at 0%; in experiment [2] it was 0%; in experiment [3], 23.7%.

With `CN1CCN(c2ncc(Oc3cc(CN4CCC(CCO)CC4)cc(-c4cc(Cl)cc(Cl)c4)n3)cn2)CC1` [Example 52, 2-(1-((2-(3,5-dichlorophenyl)-6-((2-(4-methylpiperazin-1-yl)pyrimidin-5-yl)oxy)pyridin-4-yl)methyl)piperidin-4-yl)ethanol], the inhibition at 1 µM in experiment [1] turned out to be 26.3%; in experiment [2] it was 45.6%; in experiment [3], 29.9%.

On to `CC(O)CCN1CCN(c2ncc(Oc3cc(CN4CCC(CC(=O)O)CC4)cc(-c4cc(Cl)cc(Cl)c4)n3)cn2)CC1` (stereo not drawn) [Example 237, 2-(1-((2-(3,5-dichlorophenyl)-6-((2-(4-(3-hydroxybutyl)piperazin-1-yl)pyrimidin-5-yl)oxy)pyridin-4-yl)methyl)piperidin-4-yl)acetic acid], for which the inhibition at 1 µM in experiment [1] was determined as 37%; in experiment [2], 52.1%; in experiment [3], 37.7%.

For `CN1CCN(c2ccc(Oc3cc(CN4CCC(CC(=O)O)CC4)cc(-c4cc(Cl)cc(Cl)c4)n3)nn2)CC1` [Example 359, 2-(1-((2-(3,5-dichlorophenyl)-6-((6-(4-methylpiperazin-1-yl)pyridazin-3-yl)oxy)pyridin-4-yl)methyl)piperidin-4-yl)acetic acid], the inhibition at 1 µM in experiment [1] was 28.9%; in experiment [2], 45.3%; in experiment [3], 62%.

With `CNCc1cc(Oc2ccc(N3CCNCC3)nc2)cc(-c2cc(Cl)cc(Cl)c2)c1` [Example 98, 1-(3′,5′-dichloro-5-((6-(piperazin-1-yl)pyridin-3-yl)oxy)-[1,1′-biphenyl]-3-yl)-N-methylmethanamine], the inhibition at 1 µM in experiment [1], in experiment [2] and in experiment [3] was 0% each time.

Take `CNC(=O)NCC1CCN(Cc2cc(Oc3cnc(N4CCN(CCC(N)=O)CC4)nc3)nc(-c3cc(Cl)cc(Cl)c3)c2)CC1` [Example 261, 3-(4-(5-((6-(3,5-dichlorophenyl)-4-((4-((3-methylureido)methyl)piperidin-1-yl)methyl)pyridin-2-yl)oxy)pyrimidin-2-yl)piperazin-1-yl) propanamide]: the inhibition at 1 µM in experiment [1] is 0.69%; in experiment [2], 53.6%; in experiment [3] it was 56.8%.

As to `O=C(O)CC1CCN(Cc2cc(Oc3cnc(N4CCN5CCC4C5)nc3)nc(-c3cc(Cl)cc(Cl)c3)c2)CC1` (stereo not drawn) [Example 334, 2-(1-((2-((2-(1,4-diazabicyclo[3.2.1]octan-4-yl)pyrimidin-5-yl)oxy)-6-(3,5-dichlorophenyl)pyridin-4-yl)methyl)piperidin-4-yl)acetic acid], the results for the inhibition at 1 µM in experiment [1], in experiment [2] and in experiment [3] were 29.6%, 20.8% and 41.4%, respectively.

For the compound `CC(CCN(C)C)N1CCN(c2ncc(Oc3cc(CN4CCC(CC(=O)O)CC4)cc(-c4cc(Cl)cc(Cl)c4)n3)cn2)CC1` (stereo not drawn) [Example 240, 2-(1-((2-(3,5-dichlorophenyl)-6-((2-(4-(4-(dimethylamino)butan-2-yl)piperazin-1-yl)pyrimidin-5-yl)oxy)pyridin-4-yl)methyl)piperidin-4-yl)acetic acid], the figures for the inhibition at 1 µM in experiment [1], in experiment [2] and in experiment [3] were 28.5%, 36.8% and 67.4%, respectively.

On to `CC(=O)NCC1CCN(Cc2cc(Oc3cnc(N4CCN(CC(O)C(=O)O)CC4)nc3)nc(-c3cc(Cl)cc(Cl)c3)c2)CC1` (stereo not drawn) [Example 316, 3-(4-(5-((4-((4-(acetamidomethyl)piperidin-1-yl)methyl)-6-(3,5-dichlorophenyl)pyridin-2-yl)oxy)pyrimidin-2-yl)piperazin-1-yl)-2-hydroxypropanoic acid], for which the inhibition at 1 µM in experiment [1] came to 30.6%; in experiment [2] it was 55.9%; in experiment [3], 54.4%.

With `NS(=O)(=O)CCC1CCN(Cc2cc(Oc3ccc(N4CCN(CCC(=O)O)CC4)nc3)nc(-c3cc(Cl)cc(Cl)c3)c2)CC1` [Example 277, 3-(4-(5-((6-(3,5-dichlorophenyl)-4-((4-(2-sulfamoylethyl)piperidin-1-yl)methyl)pyridin-2-yl)oxy)pyridin-2-yl)piperazin-1-yl)propanoic acid], the inhibition at 1 µM in experiment [1] came to 11.7%; in experiment [2] it was 21.7%; in experiment [3], 61.8%.

What is called inhibition is the drop in the measured response relative to a control, in per cent.
